Assay results published in ChEMBL document CHEMBL1201862, “PubChem BioAssay data set” (2004).
Calls of active or inactive are those of the source.

Experiments:
Cytochrome P450 2D6 = Cytochrome P450 2D6 (Homo sapiens, UniProt P10635); test: qHTS Assay for Inhibitors and Substrates of Cytochrome P450 2D6. [Related pubchem assays: 410 ]; assay type: ADME; conditions: read-out: Potency
Cytochrome P450 2C9 = Cytochrome P450 2C9 (Homo sapiens, UniProt P11712); conditions: Potency
[1] = target: Nucleotide-binding oligomerization domain-containing protein 1 (Homo sapiens, UniProt Q9Y239); test: blockers of NOD1 pathway activity – revised, SAR follow-up (AID 2333); assay type: functional
Tumor necrosis factor = Tumor necrosis factor (Homo sapiens, UniProt P01375); test: analog potency on TNFa NF-kB signaling – cell-based, revised, SAR follow-up (AID 2337); assay type: functional
[2] = target: Nucleotide-binding oligomerization domain-containing protein 2 (Homo sapiens, UniProt Q9HC29); test: PubChem AID 2334; assay type: functional
HEK293 = test: cells; conditions: Homo sapiens;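 also: cells exposed to compound for 14 hours overnight before viability readout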
Large T antigen = Large T antigen (Simian virus 40, UniProt P03070); test: A confirmatory biochemical assay using the ADP-Hunter methodology, purified TAg, and ATP to quantify activity of synthesized compounds that inhibit the ATPase activity of Tag (3). [Related pubchem assays (depositor defined):AID1903, AID1909, AID2102, AID2501, AID2615, AID2775, AID435001, AID449729]; parameters: species or system Betapolyomavirus macacae
[3] = target: T1, Carboxy-terminal domain RNA polymerase II polypeptide A small phosphatase 1 (Homo sapiens, UniProt Q9GZU7); test: CTDSP1 inhibitors, concentration-response, biochemical, absorbance readout, ultra-high-throughput screen actives (AID 540297); assay type: functional
T1 sequence (Q9GZU7 whole entry): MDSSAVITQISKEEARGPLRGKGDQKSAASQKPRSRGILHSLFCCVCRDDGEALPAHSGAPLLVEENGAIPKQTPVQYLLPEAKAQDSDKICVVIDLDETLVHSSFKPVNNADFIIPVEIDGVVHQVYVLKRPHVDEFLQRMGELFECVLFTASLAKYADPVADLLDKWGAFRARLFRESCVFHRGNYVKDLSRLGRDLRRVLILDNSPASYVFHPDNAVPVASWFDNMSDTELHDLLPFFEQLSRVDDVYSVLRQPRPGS

ORF 73 = ORF 73 (Human herpesvirus 8, UniProt O40947); test: KSHV LANA DNA-binding disruption – biochemical, fluorescence polarization, cherry-picked samples, dose response (AID 504725); parameters: species or system Human gammaherpesvirus 8;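 also: fluorescence polarization of a labeled DNA duplex reporting LANA DNA binding; potency is for inhibitors that block LANA binding to the DNA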
Protein Rev [4] = target: Protein Rev (Human immunodeficiency virus type 1 group M subtype B (isolate WMJ22)(HIV-1), UniProt P05866); test: inhibitors of Rev protein–RRE RNA complex – biochemical, protein-RNA interaction, dose response (AID 842); parameters: species or system Human immunodeficiency virus 1
[5] = Luminescence Cell-Based Dose Confirmation HTS to Identify Activators of 5'UTR Stem-Loop Driven Alpha-Synuclein mRNA Translation in H4 Neuroglioblastoma Cells. [Related pubchem assays: 1829 (Project Summary), 1814 (Primary HTS)]; assay type: functional
[6] = target: T2, Alkaline phosphatase, tissue-nonspecific isozyme (Homo sapiens, UniProt P05186)
T2 sequence (P05186 whole entry): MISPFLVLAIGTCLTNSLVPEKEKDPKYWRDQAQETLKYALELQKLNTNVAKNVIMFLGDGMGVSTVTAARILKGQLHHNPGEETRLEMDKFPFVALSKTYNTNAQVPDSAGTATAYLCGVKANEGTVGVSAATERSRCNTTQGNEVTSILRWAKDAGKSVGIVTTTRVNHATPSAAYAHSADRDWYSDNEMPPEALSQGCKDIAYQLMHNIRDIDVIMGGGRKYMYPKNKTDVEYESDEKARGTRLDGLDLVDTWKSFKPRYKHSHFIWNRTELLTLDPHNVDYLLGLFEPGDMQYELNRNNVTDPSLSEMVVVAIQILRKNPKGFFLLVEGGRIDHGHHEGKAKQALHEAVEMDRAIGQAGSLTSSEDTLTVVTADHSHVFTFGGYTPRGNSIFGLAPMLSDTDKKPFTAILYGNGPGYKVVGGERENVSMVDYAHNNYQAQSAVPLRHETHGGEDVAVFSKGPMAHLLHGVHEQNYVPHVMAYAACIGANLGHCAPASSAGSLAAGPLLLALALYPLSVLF

[7] = Luminescence-based cell-based high throughput dose response assay to identify activators of the DAF-12 from the parasite S. stercoralis (ssDAF-12).; assay type: functional
H4 = test: Luminescence Cell-Based Dose Response HTS to Identify Activators of 5'UTR Stem-Loop Driven Prion Protein mRNA Translation in H4 Neuroglioblastoma Cells. [Related pubchem assays: 1829 (Project Summary), 1814 (Primary HTS)]; assay type: functional; conditions: Homo sapiens
[8] = Luminescence Cell-Based Dose Response HTS to Identify Activators of Luciferase Translation or Activity in H4 […] Cells. [Related pubchem assays: 1829 (Project Summary), 1814 (Primary HTS)]; assay type: functional
[9] = target: Neuropeptides B/W receptor type 1 (Homo sapiens, UniProt P48145); test: Fluorescence-based dose response cell-based high throughput screening assay to identify antagonists of the G-protein coupled receptor 7 (GPR7). [Related pubchem assays: 1952 (Screening assay (GPR7 antagonists).), 1880 (Summary AID.)]; assay type: functional
[10] = target: Melanin-concentrating hormone receptor 1 (Homo sapiens, UniProt Q99705); test: Fluorescence-based counterscreen for antagonists of the G-protein coupled receptor 7 (GPR7): cell-based high throughput dose response assay to identify antagonists of the melanin-concentrating hormone receptor 1 (MCHR1).; assay type: functional
[11] = target: G-protein coupled receptor 35 (Homo sapiens, UniProt Q9HC97); test: inhibition of zaprinast-stimulated GPR35 beta-arrestin translocation – imaging, U2OS, beta-arrestin-GFP, zaprinast agonist, primary screen (AID 2058); assay type: functional;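 also: antagonist potency meaning inhibition of agonist-induced arrestin redistribution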
Protein Rev [12] = target: Protein Rev (Human immunodeficiency virus type 1 group M subtype B (isolate HXB2)(HIV-1), UniProt P04618); test: blockers of HIV Rev/RRE RNA complex – biochemical, fluorescence polarization, HIV-1, dose response (AID 434976); parameters: species or system Human immunodeficiency virus 1
[13] = target: Female germline-specific tumor suppressor gld-1 (Caenorhabditis elegans, UniProt Q17339); test: blockers of GLD-1/TGE RNA complex formation – biochemical, fluorescence polarization, C. elegans, dose response (AID 2802);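 also: fluorescence polarization of labeled TGE RNA bound by purified gld-1 protein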
Staphylococcus aureus = test: Inhibitors of Bacterial Quorum Sensing Structure Activity Relationship (SAR) Analysis: Dose Response Assay. [Related pubchem assays: 700, 527 ]; assay type: functional, organism-based
Perilipin-1/ABHD5 = Perilipin-1/ABHD5 (Homo sapiens, UniProt O60240+Q8WTS1); test: Luminescence-based biochemical high throughput dose response assay for inhibitors of the interaction of the lipase co-activator protein, abhydrolase domain containing 5 (ABHD5) with perilipin-1 (PLIN1) (2K validation set). [Related pubchem assays (depositor defined):AID493027, AID493057]
[14] = target: 1-acylglycerol-3-phosphate O-acyltransferase ABHD5/Perilipin-5 (Homo sapiens, UniProt Q00G26+Q8WTS1); test: Luminescence-based biochemical high throughput dose response assay for inhibitors of the interaction of the lipase co-activator protein, abhydrolase domain containing 5 (ABHD5) with perilipin-5 (MLDP; PLIN5) (2K validation set). [Related pubchem assays (depositor defined):AID493035, AID493241]
[15] = target: Cyclin-dependent kinase 5/CDK5 activator 1 (Homo sapiens, UniProt Q00535); test: blockade of human CDK5 activity – biochemical, cherry-picked samples, set 2, dose response (AID 504545)
[16] = ADP-Glo luciferase signal interference – biochemical, luminescence, cherry-picked samples, set 2, artefact control for CDK5 inhibitor project, dose response (AID 504546); assay type: functional, cell-based
[17] = target: Dual specificity protein phosphatase 3 (Homo sapiens, UniProt P51452); test: inhibition constants for human DUSP3 – biochemical, colorimetric, SAR follow-up (AID 2004)
[18] = HEK-293T cell viability reduction – luminescence, B-cell screen hits, cytotoxicity control for BCR NF-kB inhibitor project, dose response (AID 489021); assay type: functional, cell-based;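 also: HEK-293T cells carrying an NF-kB luciferase reporter; cells exposed to compound for about 14 hours before viability readout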
CAAX prenyl protease 2 = CAAX prenyl protease 2 (Saccharomyces cerevisiae S288c, UniProt Q03530); assay type: biochemical
[19] = target: Mannose-6-phosphate isomerase (Homo sapiens, UniProt P34949); test: MPI enzyme activity inhibition – biochemical, fluorescence intensity, coupled assay, primary screen (AID 1209)
Mu-type opioid receptor = Mu-type opioid receptor (Homo sapiens, UniProt P35372); test: HTS Image-Based Screen for Agonists of the MOR Receptor. [Related pubchem assays (depositor defined):AID1777, AID1785, AID1786, AID2133]; assay type: functional;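 also: imaging of beta-arrestin GFP recruitment into spots after receptor activation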
[20] = target: T3, Kappa-type opioid receptor (Homo sapiens, UniProt P41145); assay type: functional
[21] = target: T3, Kappa-type opioid receptor; assay type: functional; remark: listed apart in the source
[22] = target: T4, Delta-type opioid receptor (Homo sapiens, UniProt P41143); test: HTS Image-Based Screen for Agonists of the DOR Receptor. [Related pubchem assays (depositor defined):AID1777, AID1786, AID2133]; assay type: functional
[23] = target: T3, Kappa-type opioid receptor; assay type: functional; remark: listed apart in the source
[24] = target: T4, Delta-type opioid receptor; test: HTS Image-Based Screen for Antagonists of the DOR Receptor. [Related pubchem assays (depositor defined):AID1777, AID1785, AID1786, AID2133]; assay type: functional
Vero [25] = test: host cell viability loss, Vero E6 – synthesized analogs, cytotoxicity control for West Nile virus antiviral project, SAR follow-up (AID 2244); assay type: functional; conditions: Chlorocebus sabaeus
Vero [26] = test: antiviral activity against WNV, CPE read-out – cell-based (AID 2419); assay type: functional; conditions: Chlorocebus sabaeus
[27] = A Cell Based Assay for the Identification of Probe candidate Compounds with Anti- Venezuelan Equine Encephalitis virus. [Related pubchem assays: 2409, 2419, 1621, 2238, 2405, 2024, 2065, 2402, 2414, 1635, 1650, 2244 ]; assay type: functional
Vero [28] = test: Vero cell viability after compound exposure – synthesized analogs, set II, cytotoxicity control for West Nile virus antiviral project, SAR follow-up (AID 2402); assay type: functional; conditions: Chlorocebus sabaeus
Vero [29] = test: Vero 76 cell viability after compound exposure – Vero 76 cells, synthesized analogs, cytotoxicity control for West Nile virus antiviral project, SAR follow-up (AID 2414); assay type: functional; conditions: Chlorocebus sabaeus
Vero [30] = test: antiviral protection of cells from WNV – synthesized analogs, SAR follow-up (AID 2238); assay type: functional, cell-based; conditions: Chlorocebus sabaeus

T3 sequence (P41145 whole entry): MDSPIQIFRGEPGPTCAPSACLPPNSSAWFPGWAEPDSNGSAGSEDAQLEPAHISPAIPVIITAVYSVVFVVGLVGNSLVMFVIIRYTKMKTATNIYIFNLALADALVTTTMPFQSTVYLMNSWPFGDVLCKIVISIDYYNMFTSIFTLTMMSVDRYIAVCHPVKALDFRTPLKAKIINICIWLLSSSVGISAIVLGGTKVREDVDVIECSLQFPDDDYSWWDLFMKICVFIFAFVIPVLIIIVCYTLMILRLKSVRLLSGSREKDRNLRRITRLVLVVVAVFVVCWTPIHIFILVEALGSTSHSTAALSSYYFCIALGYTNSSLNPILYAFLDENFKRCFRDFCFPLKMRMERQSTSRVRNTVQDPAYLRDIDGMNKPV
T4 sequence (P41143 whole entry): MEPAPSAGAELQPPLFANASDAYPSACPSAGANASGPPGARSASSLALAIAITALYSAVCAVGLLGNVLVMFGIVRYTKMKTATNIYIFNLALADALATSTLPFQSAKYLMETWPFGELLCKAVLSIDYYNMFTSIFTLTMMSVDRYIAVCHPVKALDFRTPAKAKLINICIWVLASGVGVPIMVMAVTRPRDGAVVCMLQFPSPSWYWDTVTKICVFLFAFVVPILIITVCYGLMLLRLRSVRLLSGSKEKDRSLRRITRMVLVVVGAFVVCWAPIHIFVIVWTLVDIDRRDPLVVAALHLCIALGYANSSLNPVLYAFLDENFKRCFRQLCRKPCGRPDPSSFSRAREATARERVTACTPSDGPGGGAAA
Tumor necrosis factor, sequence (P01375 whole entry, the tested form may be a part): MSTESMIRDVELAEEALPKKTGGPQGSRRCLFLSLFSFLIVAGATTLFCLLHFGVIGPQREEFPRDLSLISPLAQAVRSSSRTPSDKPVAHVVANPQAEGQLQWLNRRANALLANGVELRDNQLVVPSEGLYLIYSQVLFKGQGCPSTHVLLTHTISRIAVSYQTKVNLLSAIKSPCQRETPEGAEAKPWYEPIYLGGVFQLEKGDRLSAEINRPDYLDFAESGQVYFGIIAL
Cyclin-dependent kinase 5/CDK5 activator 1, sequence (Q00535 whole entry): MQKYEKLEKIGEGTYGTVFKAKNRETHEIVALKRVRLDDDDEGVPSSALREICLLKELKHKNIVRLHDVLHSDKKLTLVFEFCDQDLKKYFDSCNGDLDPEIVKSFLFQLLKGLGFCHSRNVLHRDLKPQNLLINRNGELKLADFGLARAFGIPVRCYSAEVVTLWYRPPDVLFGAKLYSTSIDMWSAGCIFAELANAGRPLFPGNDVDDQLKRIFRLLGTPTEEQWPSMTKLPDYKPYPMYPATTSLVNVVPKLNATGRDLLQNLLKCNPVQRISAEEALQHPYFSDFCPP
Cyclin-dependent kinase 5/CDK5 activator 1, sequence (Q15078 whole entry, further chain): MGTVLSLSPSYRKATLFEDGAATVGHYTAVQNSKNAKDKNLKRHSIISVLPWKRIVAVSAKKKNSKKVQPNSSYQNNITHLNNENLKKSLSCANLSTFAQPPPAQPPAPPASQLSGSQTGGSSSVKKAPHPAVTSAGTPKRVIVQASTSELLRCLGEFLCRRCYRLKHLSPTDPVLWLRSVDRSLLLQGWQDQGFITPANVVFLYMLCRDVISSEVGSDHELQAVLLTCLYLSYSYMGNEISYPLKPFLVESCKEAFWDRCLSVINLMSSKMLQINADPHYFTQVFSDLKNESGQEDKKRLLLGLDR
CAAX prenyl protease 2, sequence (Q03530 whole entry): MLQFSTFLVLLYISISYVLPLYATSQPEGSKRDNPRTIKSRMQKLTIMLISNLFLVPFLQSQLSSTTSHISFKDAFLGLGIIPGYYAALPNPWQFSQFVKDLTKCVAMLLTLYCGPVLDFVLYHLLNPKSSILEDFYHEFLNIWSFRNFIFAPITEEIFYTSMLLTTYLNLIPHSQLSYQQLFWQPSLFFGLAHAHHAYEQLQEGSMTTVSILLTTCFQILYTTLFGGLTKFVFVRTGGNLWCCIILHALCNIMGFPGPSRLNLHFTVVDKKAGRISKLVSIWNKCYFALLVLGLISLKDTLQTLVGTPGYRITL
Large T antigen, sequence (P03070 whole entry, the tested form may be a part): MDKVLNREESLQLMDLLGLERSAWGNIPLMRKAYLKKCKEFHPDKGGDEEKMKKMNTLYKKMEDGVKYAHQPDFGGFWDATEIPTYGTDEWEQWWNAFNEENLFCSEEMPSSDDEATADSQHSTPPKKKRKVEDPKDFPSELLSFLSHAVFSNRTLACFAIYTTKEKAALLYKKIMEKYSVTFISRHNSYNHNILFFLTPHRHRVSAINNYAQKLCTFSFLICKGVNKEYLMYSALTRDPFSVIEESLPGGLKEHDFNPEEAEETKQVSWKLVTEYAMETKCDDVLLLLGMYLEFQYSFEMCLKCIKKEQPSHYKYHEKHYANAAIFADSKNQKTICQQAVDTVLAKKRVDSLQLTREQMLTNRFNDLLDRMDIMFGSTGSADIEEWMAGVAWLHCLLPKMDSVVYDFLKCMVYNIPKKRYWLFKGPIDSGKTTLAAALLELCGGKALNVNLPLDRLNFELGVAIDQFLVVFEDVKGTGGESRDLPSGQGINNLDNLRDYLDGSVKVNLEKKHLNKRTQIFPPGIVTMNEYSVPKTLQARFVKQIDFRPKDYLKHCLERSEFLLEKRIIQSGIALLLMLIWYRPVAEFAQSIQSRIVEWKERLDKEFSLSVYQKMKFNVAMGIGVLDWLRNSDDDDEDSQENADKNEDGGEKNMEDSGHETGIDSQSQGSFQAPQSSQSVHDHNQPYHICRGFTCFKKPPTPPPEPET
1-acylglycerol-3-phosphate O-acyltransferase ABHD5/Perilipin-5, sequence (Q00G26 whole entry, the tested form may be a part): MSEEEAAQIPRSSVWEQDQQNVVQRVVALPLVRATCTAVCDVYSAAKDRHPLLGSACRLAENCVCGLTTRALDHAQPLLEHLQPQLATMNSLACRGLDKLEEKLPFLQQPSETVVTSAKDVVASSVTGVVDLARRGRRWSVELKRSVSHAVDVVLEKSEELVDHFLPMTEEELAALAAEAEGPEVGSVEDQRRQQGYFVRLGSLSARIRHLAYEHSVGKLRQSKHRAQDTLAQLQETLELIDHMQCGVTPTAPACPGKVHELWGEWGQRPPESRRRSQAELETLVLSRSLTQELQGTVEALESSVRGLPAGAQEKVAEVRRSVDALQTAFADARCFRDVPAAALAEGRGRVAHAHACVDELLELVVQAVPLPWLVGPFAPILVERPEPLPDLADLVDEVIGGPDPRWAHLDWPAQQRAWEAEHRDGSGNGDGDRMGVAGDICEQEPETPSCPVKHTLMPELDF
1-acylglycerol-3-phosphate O-acyltransferase ABHD5/Perilipin-5, sequence (Q8WTS1 whole entry, the tested form may be a part): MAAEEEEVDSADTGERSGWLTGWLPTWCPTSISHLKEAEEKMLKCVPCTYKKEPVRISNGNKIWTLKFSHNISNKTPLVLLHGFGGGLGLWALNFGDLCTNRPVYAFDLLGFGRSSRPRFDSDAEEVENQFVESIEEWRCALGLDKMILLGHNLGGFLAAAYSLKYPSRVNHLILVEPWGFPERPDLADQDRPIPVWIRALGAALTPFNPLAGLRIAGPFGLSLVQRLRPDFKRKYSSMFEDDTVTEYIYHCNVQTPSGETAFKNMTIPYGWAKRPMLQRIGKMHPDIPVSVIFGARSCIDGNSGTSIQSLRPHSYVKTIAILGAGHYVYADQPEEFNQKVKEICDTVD
Melanin-concentrating hormone receptor 1, sequence (Q99705 whole entry): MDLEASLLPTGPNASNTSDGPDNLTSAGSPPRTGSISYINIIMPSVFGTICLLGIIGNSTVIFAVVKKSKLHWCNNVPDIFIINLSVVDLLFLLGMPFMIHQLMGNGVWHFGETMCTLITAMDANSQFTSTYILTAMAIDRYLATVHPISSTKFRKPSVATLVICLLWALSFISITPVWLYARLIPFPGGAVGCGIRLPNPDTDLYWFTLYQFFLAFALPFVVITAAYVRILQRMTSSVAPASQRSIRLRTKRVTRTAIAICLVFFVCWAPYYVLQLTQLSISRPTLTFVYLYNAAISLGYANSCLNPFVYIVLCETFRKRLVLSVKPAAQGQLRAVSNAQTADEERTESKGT
ORF 73, sequence (O40947 whole entry): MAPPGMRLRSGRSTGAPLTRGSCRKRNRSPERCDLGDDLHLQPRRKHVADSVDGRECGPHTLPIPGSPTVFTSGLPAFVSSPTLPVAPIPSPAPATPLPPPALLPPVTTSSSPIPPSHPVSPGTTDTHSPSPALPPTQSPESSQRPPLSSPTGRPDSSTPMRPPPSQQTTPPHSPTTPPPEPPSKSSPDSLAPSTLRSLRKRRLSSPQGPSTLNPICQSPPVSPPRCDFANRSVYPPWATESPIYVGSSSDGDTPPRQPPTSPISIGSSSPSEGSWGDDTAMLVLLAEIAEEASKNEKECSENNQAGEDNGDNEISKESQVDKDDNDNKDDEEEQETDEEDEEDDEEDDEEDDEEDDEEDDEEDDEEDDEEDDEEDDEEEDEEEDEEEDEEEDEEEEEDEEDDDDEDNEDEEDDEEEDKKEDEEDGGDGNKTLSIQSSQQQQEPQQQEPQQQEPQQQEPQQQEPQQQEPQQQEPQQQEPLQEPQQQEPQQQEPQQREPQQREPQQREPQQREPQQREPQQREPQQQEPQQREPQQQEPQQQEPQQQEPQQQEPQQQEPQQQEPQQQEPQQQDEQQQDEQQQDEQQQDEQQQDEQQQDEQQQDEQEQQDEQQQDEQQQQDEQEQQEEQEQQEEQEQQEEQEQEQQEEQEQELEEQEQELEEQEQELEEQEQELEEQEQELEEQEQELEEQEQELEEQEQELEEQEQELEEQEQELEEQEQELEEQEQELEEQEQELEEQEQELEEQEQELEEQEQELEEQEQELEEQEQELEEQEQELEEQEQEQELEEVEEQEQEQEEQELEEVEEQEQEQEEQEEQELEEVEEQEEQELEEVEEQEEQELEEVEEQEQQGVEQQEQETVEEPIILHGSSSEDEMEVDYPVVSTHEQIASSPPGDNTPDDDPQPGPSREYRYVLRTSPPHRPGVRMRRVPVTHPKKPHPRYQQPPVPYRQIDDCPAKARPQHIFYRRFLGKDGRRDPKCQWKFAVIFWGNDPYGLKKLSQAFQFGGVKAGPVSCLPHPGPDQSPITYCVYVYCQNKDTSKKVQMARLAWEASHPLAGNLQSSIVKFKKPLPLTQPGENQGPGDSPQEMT

Structure (SMILES): CC(=O)OCC1OC(c2ccc3c(c2)OCO3)C=CC1OC(C)=O (stereo unspecified)
- AC50 (Cytochrome P450 2D6): 7.94 µM (inconclusive)
- AC50 (Cytochrome P450 2C9): 5.01 µM (inconclusive)

Structure (SMILES): O=C(Nc1sc2c(c1C(=O)O)CCCC2)c1cccs1
- IC50 [1]: > 20 µM (inactive)
- IC50 (Tumor necrosis factor): > 20 µM (inactive)
- IC50 [2]: > 20 µM (inactive)
- IC50 (HEK293): > 20 µM (inactive)

Structure (SMILES): Oc1ccc(Cc2ccc(O)cc2)cc1
- IC50 (Large T antigen): 70.1 µM (active)

Structure (SMILES): N=C1/C(=C/c2ccc(-c3cccc(C(=O)O)c3)o2)C(=O)N=C2SC(CC(=O)N3CCOCC3)=NN12
- IC50 [3]: 3.21 µM (active)
- AC50 (ORF 73): 67.7 µM (active)

Structure (SMILES): CC(NCc1ccc(N(C)C)cc1)C1CC2CCC1C2 (stereo unspecified)
- IC50 (Protein Rev [4]): > 79.4 µM (not active)

Structure (SMILES): Cc1cc(C)c(C#N)c(SCc2nc3ccccc3[nH]2)n1
- EC50 [5]: 0.262 µM (active)
- EC50 [6]: > 100 µM (not active)
- IC50 [7]: > 67.5 µM (inactive)
- EC50 (H4): 44.6 µM (active)
- EC50 [8]: 14.9 µM (active)

Structure (SMILES): CCOC(=O)N1CCN(S(=O)(=O)c2ccc(C(=O)N(CCCN(C)C)c3nc4ccc(CC)cc4s3)cc2)CC1
- IC50 [9]: 14.2 µM (not active)
- IC50 [10]: 18.3 µM (not active)

Structure (SMILES): COc1ccc2nc3oc(C(=O)N4CCN(c5cccc(Cl)c5)CC4)cc3cc2c1
- IC50 [11]: 2.14 µM (active)

Structure (SMILES): CCOC(=O)c1cc2c(ccn2C)n1CC(=O)N(Cc1ccccc1)c1ccc(F)cc1
- IC50 (Protein Rev [12]): > 75.4 µM (not active)
- IC50 [13]: > 59.6 µM (inactive)

Structure (SMILES): CC1CCCN(C(C(=O)Nc2ccc3c(c2)OCO3)c2ccccc2)C1 (stereo unspecified)
- IC50 (Staphylococcus aureus): 0.162 µM (active)

Structure (SMILES): CCCCC/C=C\C[C@H](O)/C=C/c1cccc(C[C@H](O)CCCCO)n1
- IC50 (Perilipin-1/ABHD5): 5.05 µM (active)
- IC50 [14]: 5.28 µM (active)

Structure (SMILES): Cc1occc1C(=O)N/N=C/c1ccc(N(C)C)cc1
- AC50 [15]: 19.5 µM (active)
- AC50 [16]: 26.4 µM (active)

Structure (SMILES): COc1cccc2c1NC(c1cccc3ccccc13)C1CC=CC21 (stereo unspecified)
- Ki [17]: 141 µM (inactive)

Structure (SMILES): O=C1CCCc2c1[nH]c1ccc(CN3CCCCC3)cc21
- IC50 [18]: > 80 µM (inactive)

Structure (SMILES): c1ccc(Nc2cccc(Nc3ccccc3)n2)cc1
- AC50 (CAAX prenyl protease 2): 13.3 µM (active)
- IC50 [19]: > 50 µM (not active)

Structure (SMILES): CCC(C)(C(=O)NC1CCCCC1)N(Cc1cccs1)C(=O)c1ccccn1 (stereo unspecified)
- EC50 (Mu-type opioid receptor): > 32 µM (inactive)
- IC50 [20]: > 5 µM (inactive)
- EC50 [21]: < 0.5 µM
- EC50 [22]: > 32 µM (inactive)
- EC50 [23]: 0.0599 µM
- IC50 [24]: > 32 µM (inactive)

Structure (SMILES): COc1ccc(-c2csc(N(CCCN(C)C)C(=O)c3ccccc3Cl)n2)cc1
- CC50 (Vero [25]): 28.4 µM (active)
- IC50 (Vero [26]): > 25 µM (active)
- IC50 [27]: 5.37 µM (active)
- CC50 (Vero [28]): 9.54 µM (active)
- CC50 (Vero [29]): 20.2 µM (active)
- IC50 (Vero [30]): 29.5 µM (active)
